The record followed here is ChEMBL document CHEMBL3832761, “MMV Pathogen Box Bioactivity Data” (2017).

Common to all, as to format: functional
Assay [1] relates to Mycobacterium tuberculosis. Kind of assay: AntiMycobacterium tuberculosis activity Non-Replicating form: Average MIC90 (uM).
Assay [2] deals with Mycobacterium tuberculosis. Kind of assay: AntiMycobacterium tuberculosis activity 2-week 7H9/glucose/BSA/Tx MIC (uM). Conditions: 336 h.
Assay [3] has as its system Mycobacterium tuberculosis. Kind of assay: AntiMycobacterium tuberculosis activity 1-week GAST/Fe MIC (uM). To be noted: 168 h.
The subject of assay [4] is Mycobacterium tuberculosis. Kind of assay: AntiMycobacterium tuberculosis activity 1-week 7H9/ADC/Tw MIC (uM). Conditions: 168 h.
In assay [5] the test system is Mycobacterium tuberculosis. Kind of assay: AntiMycobacterium tuberculosis activity 2-week 7H9/ADC/Tw MIC (uM). To be noted: 336 h.
Assay [6] deals with Mycobacterium tuberculosis. Kind of assay: AntiMycobacterium tuberculosis activity 1-week 7H9/DPPC/cholesterol/BSA/Tx MIC (uM). Conditions: 168 h.
In assay [7] the test system is Mycobacterium tuberculosis. As to the kind of experiment: AntiMycobacterium tuberculosis activity 1-week 7H9/cholesterol/BSA/Tx MIC (uM). To be noted: 168 h.
Assay [8] deals with Mycobacterium tuberculosis. As to the kind of experiment: AntiMycobacterium tuberculosis activity 2-week 7H9/DPPC/cholesterol/BSA/Tx MIC (uM). To be noted: 336 h.
Assay [9] has as its system Mycobacterium tuberculosis. As to the kind of experiment: AntiMycobacterium tuberculosis activity 2-week Alamar Blue 7H9/cholesterol/BSA/Tx MIC (uM). Conditions: 336 h.
Assay [10] deals with Mycobacterium tuberculosis. Kind of assay: AntiMycobacterium tuberculosis activity day 21 in 7H9/2.5mM butyrate/pH6/0.1mM nitrite MIC90 (uM). Conditions: 504 h.
The subject of assay [11] is Mycobacterium tuberculosis. Kind of assay: (§1) AntiMycobacterium tuberculosis activity day 10 in 7H9/2.5mM butyrate/pH6/0.1mM nitrite MIC90 (uM). Conditions: 240 h.
In a further assay the test system is HepG2. Kind of assay: HepG2 CC50 (uM) Cytotoxicity. To be noted: Homo sapiens.
Assay [12] deals with Mycobacterium tuberculosis. Kind of assay: AntiMycobacterium tuberculosis activity 2-week GAST/Fe MIC (uM). Conditions: 336 h.
The subject of assay [13] is Mycobacterium tuberculosis. Kind of assay: AntiMycobacterium tuberculosis activity Replicating form: Average MIC90 (uM).
Assay [14] relates to Mycobacterium tuberculosis. Kind of assay: AntiMycobacterium tuberculosis activity 2-week Alamar Blue 7H9/ADC/Tw MIC (uM). To be noted: 336 h.
Assay [15] has as its system Mycobacterium tuberculosis. As to the kind of experiment: AntiMycobacterium tuberculosis activity day 21 MIC99 in 7H9/2.5mM butyrate/pH6/0.1mM nitrite MIC99 (uM). To be noted: 504 h.
Assay [16] deals with Mycobacterium tuberculosis. Described as §1. Conditions: 240 h. The source holds these as a separate data set.
The test system of assay [17] is Mycobacterium tuberculosis. Kind of assay: AntiMycobacterium tuberculosis activity 1-week 7H9/glucose/BSA/Tx MIC (uM). Conditions: 168 h.

≈ marks a conversion by molar mass, not a printed value.

Regarding `CC(=O)NCC1CN(c2ccc(-c3ccc(CO)cc3)c(F)c2)C(=O)O1` (stereo unspecified), the MIC90 amounted to 0.32 µM (≈ 0.115 µg/mL) in [1]; 0.78 µM (≈ 0.28 µg/mL) in assay [10]; 1.5 µM (≈ 0.538 µg/mL) in assay [11]; 0.49 µM (≈ 0.176 µg/mL) in assay [13]; 0.39 µM (≈ 0.14 µg/mL) in assay [16]. Also, the minimal inhibitory concentration (MIC) worked out at 0.6 µM (≈ 0.215 µg/mL) in assay [2]; 0.1 µM (≈ 0.0358 µg/mL) in [3]; 0.39 µM (≈ 0.14 µg/mL) in assay [4]; 0.6 µM (≈ 0.215 µg/mL) in [5]; 0.39 µM (≈ 0.14 µg/mL) in assay [6]; 0.39 µM (≈ 0.14 µg/mL) in [7]. The MIC in assay [8] amounted to 0.6 µM (≈ 0.215 µg/mL); in assay [9] it was 0.39 µM (≈ 0.14 µg/mL); in [12], 0.3 µM (≈ 0.108 µg/mL); in [14], 0.39 µM (≈ 0.14 µg/mL); in assay [15], 1.5 µM (≈ 0.538 µg/mL); in assay [17], 0.6 µM (≈ 0.215 µg/mL). Further, the CC50 with HepG2 was more than 100 µM.

On to `CN1CCN(CCCOc2ncc(Nc3ncc(-c4ccc(C(F)(F)F)c(F)c4)nc3C(N)=O)cn2)CC1`, for which the MIC90 in assay [1] turned out to be 3.1 µM (≈ 1.66 µg/mL); in [10] it was 1.5 µM (≈ 0.802 µg/mL); in [11] it was 12.5 µM (≈ 6.68 µg/mL); in [13] it was 3.46 µM (≈ 1.85 µg/mL); in assay [16], 0.78 µM (≈ 0.417 µg/mL). Also, the MIC was determined as 1.56 µM (≈ 0.834 µg/mL) in assay [2]; 1.56 µM (≈ 0.834 µg/mL) in assay [3]; 1.2 µM (≈ 0.641 µg/mL) in assay [4]; 1.56 µM (≈ 0.834 µg/mL) in [5]; 0.2 µM (≈ 0.107 µg/mL) in [6]; 0.39 µM (≈ 0.208 µg/mL) in assay [7]. In addition, the minimum inhibitory concentration (MIC) in assay [8] was determined as 0.6 µM (≈ 0.321 µg/mL); in [9], 0.6 µM (≈ 0.321 µg/mL); in assay [12], 1.56 µM (≈ 0.834 µg/mL); in assay [14] it was 1.56 µM (≈ 0.834 µg/mL); in [15], 12.5 µM (≈ 6.68 µg/mL); in assay [17] it was 1.2 µM (≈ 0.641 µg/mL). This molecule came in with a CC50 in the assay on HepG2 of 3.9 µM.

Take `NC(CC(=O)c1ccc(Cl)cc1Cl)C(Cl)(Cl)Cl` (stereo unspecified): the MIC90 in assay [1] was 6.04 µM (≈ 2.03 µg/mL); in assay [10] it was 12.5 µM (≈ 4.19 µg/mL); in [11], more than 50 µM; in [13] it was 17.4 µM (≈ 5.83 µg/mL); in assay [16], 12.5 µM (≈ 4.19 µg/mL). In addition, the MIC is 25 µM (≈ 8.39 µg/mL) in assay [2]; 0.39 µM (≈ 0.131 µg/mL) in assay [3]; 12.5 µM (≈ 4.19 µg/mL) in [4]; 12.5 µM (≈ 4.19 µg/mL) in [5]; 37 µM (≈ 12.4 µg/mL) in [6]; 19 µM (≈ 6.37 µg/mL) in assay [7]. The minimum inhibitory concentration (MIC) in [8] is 50 µM (≈ 16.8 µg/mL); in assay [9] it was 25 µM (≈ 8.39 µg/mL); in assay [12] it was 0.6 µM (≈ 0.201 µg/mL); in assay [14], 12.5 µM (≈ 4.19 µg/mL); in [15], more than 50 µM; in [17], 19 µM (≈ 6.37 µg/mL). Also, the CC50 in the assay on HepG2 is 37.9 µM.

With `COc1cccc(OC)c1C(=O)Nc1ccc(Cl)c(-c2nc3ccccc3s2)c1`, the MIC90 was 55.1 µM (≈ 23.4 µg/mL) in [1]; more than 50 µM in assay [10]; more than 50 µM in assay [11]; 26.1 µM (≈ 11.1 µg/mL) in assay [13]; more than 50 µM in [16]. The MIC was 25 µM (≈ 10.6 µg/mL) in assay [2]; 6.25 µM (≈ 2.66 µg/mL) in assay [3]; 37 µM (≈ 15.7 µg/mL) in assay [4]; 37 µM (≈ 15.7 µg/mL) in assay [5]; 12.5 µM (≈ 5.31 µg/mL) in [6]; 12.5 µM (≈ 5.31 µg/mL) in assay [7]. In addition, the MIC is 12.5 µM (≈ 5.31 µg/mL) in assay [8]; 19 µM (≈ 8.07 µg/mL) in assay [9]; 9.4 µM (≈ 3.99 µg/mL) in assay [12]; 37 µM (≈ 15.7 µg/mL) in [14]; more than 50 µM in assay [15]; 25 µM (≈ 10.6 µg/mL) in assay [17]. The molecule further yielded a CC50 in the assay on HepG2 of more than 100 µM.

As for `O=C(Nc1ccc(C(F)(F)F)c(C(F)(F)F)c1)c1cc(Cl)ccc1O`, the MIC90 was found to be 0.1 µM (≈ 0.0384 µg/mL) in assay [1]; 1.5 µM (≈ 0.576 µg/mL) in assay [10]; 1.5 µM (≈ 0.576 µg/mL) in assay [11]; 2.33 µM (≈ 0.894 µg/mL) in assay [13]; 1.5 µM (≈ 0.576 µg/mL) in assay [16]. The MIC was found to be 3.13 µM (≈ 1.2 µg/mL) in assay [2]; 1.56 µM (≈ 0.599 µg/mL) in assay [3]; 3.13 µM (≈ 1.2 µg/mL) in [4]; 4.7 µM (≈ 1.8 µg/mL) in assay [5]; 2.3 µM (≈ 0.882 µg/mL) in [6]; 1.56 µM (≈ 0.599 µg/mL) in assay [7]. In addition, the MIC in assay [8] was determined as 3.13 µM (≈ 1.2 µg/mL); in [9], 1.56 µM (≈ 0.599 µg/mL); in assay [12], 2.3 µM (≈ 0.882 µg/mL); in assay [14] it was 4.7 µM (≈ 1.8 µg/mL); in [15], 1.5 µM (≈ 0.576 µg/mL); in assay [17], 1.56 µM (≈ 0.599 µg/mL). In the assay with HepG2, the CC50 came out at 0.7 µM.

As to `Cc1cnc(N2CCN[C@@H](Cc3ccccc3)C2)nc1Oc1ccc(-n2ccnc2)cc1`, the MIC90 in assay [1] is 27.7 µM (≈ 11.8 µg/mL); in assay [10] it was more than 50 µM; in assay [11], more than 50 µM; in assay [13], 8.88 µM (≈ 3.79 µg/mL); in [16] it was more than 50 µM. For the same molecule, the MIC in [2] turned out to be 37 µM (≈ 15.8 µg/mL); in assay [3] it was 6.25 µM (≈ 2.67 µg/mL); in assay [4], 25 µM (≈ 10.7 µg/mL); in [5], 37 µM (≈ 15.8 µg/mL); in [6], 12.5 µM (≈ 5.33 µg/mL); in [7], 12.5 µM (≈ 5.33 µg/mL). Also, the MIC in [8] is 37 µM (≈ 15.8 µg/mL); in assay [9], 50 µM (≈ 21.3 µg/mL); in [12], 9.4 µM (≈ 4.01 µg/mL); in [14] it was 19 µM (≈ 8.1 µg/mL); in [15], more than 50 µM; in assay [17], 19 µM (≈ 8.1 µg/mL). In the assay with HepG2, this molecule had a CC50 of 14.1 µM.

For the molecule `Cc1cc(C)cc(COc2ccc3c(C)c(CCC(=O)O)c(=O)oc3c2C)c1`, the MIC90 was more than 100 µM in assay [1]; more than 50 µM in assay [10]; more than 50 µM in assay [11]; more than 100 µM in assay [13]; more than 50 µM in [16]. For the same molecule, the MIC in [2] was more than 50 µM; in [3], 6.25 µM (≈ 2.38 µg/mL); in [4], more than 50 µM; in assay [5] it was more than 50 µM; in assay [6], 50 µM (≈ 19 µg/mL); in assay [7], more than 50 µM. Besides, the MIC in assay [8] is 50 µM (≈ 19 µg/mL); in [9], more than 50 µM; in assay [12], 9.4 µM (≈ 3.58 µg/mL); in assay [14] it was more than 50 µM; in assay [15], more than 50 µM; in assay [17], more than 50 µM. The molecule also returned a CC50 with HepG2 of more than 100 µM.
